PubChem BioAssay (NCI)
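Here, GI50 denotes the concentration required for 50% inhibition of growth. TGI: total growth inhibition.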

Columns and labels:
Experiment in all cases: NCI-60 cell line screen, 384-well format
786-0 renal = system: 786-0 renal
A498 renal = system: A498 renal
A549 NSCLC = system: A549 NSCLC
ACHN renal = system: ACHN renal
BT-549 breast = system: BT-549 breast
CAKI-1 renal = system: CAKI-1 renal
CCRF-CEM leukemia = system: CCRF-CEM leukemia
DU-145 prostate = system: DU-145 prostate
EKVX NSCLC = system: EKVX NSCLC
HCC-2998 colon = system: HCC-2998 colon
HCT-116 colon = system: HCT-116 colon
HL-60(TB) leukemia = system: HL-60(TB) leukemia
HOP-62 NSCLC = system: HOP-62 NSCLC
HS 578T breast = system: HS 578T breast
HT29 colon = system: HT29 colon
IGROV1 ovarian = system: IGROV1 ovarian
K-562 leukemia = system: K-562 leukemia
KM12 colon = system: KM12 colon
LOX IMVI melanoma = system: LOX IMVI melanoma
M14 melanoma = system: M14 melanoma
MALME-3M melanoma = system: MALME-3M melanoma
MCF7 breast = system: MCF7 breast
MDA-MB-231 breast = system: MDA-MB-231 breast
MDA-MB-435 melanoma = system: MDA-MB-435 melanoma
NCI-H226 lung = system: NCI-H226 lung
NCI-H322M lung = system: NCI-H322M lung
NCI-H460 NSCLC = system: NCI-H460 NSCLC
NCI-H522 lung = system: NCI-H522 lung
NCI/ADR-RES ovarian = system: NCI/ADR-RES ovarian
OVCAR-3 ovarian = system: OVCAR-3 ovarian
OVCAR-4 ovarian = system: OVCAR-4 ovarian
PC-3 prostate = system: PC-3 prostate
RXF 393 renal = system: RXF 393 renal
SF-268 CNS = system: SF-268 CNS
SF-295 CNS = system: SF-295 CNS
SF-539 CNS = system: SF-539 CNS
SK-MEL-2 melanoma = system: SK-MEL-2 melanoma
SK-MEL-5 melanoma = system: SK-MEL-5 melanoma
SK-OV-3 ovarian = system: SK-OV-3 ovarian
SN12C renal = system: SN12C renal
SNB-19 CNS = system: SNB-19 CNS
SNB-75 CNS = system: SNB-75 CNS
SW-620 colon = system: SW-620 colon
T-47D breast = system: T-47D breast
TK-10 renal = system: TK-10 renal
UACC-62 melanoma = system: UACC-62 melanoma
UO-31 renal = system: UO-31 renal

**Q.** What does the source list for `COC(=O)c1ccc2c(C(=Nc3ccc(N(C)C(=O)CN4CCN(C)CC4)cc3)c3ccccc3)c(O)[nH]c2c1`?
**A.** GI50 ([…]-0 renal): 1.4 µM; TGI (786-0 renal): 2.79 µM; GI50 (A498 renal): 1.64 µM; TGI (A498 renal): 3.07 µM; GI50 (A549 NSCLC): 1.74 µM; TGI (A549 NSCLC): 3.32 µM; GI50 (ACHN renal): 1.36 µM; TGI (ACHN renal): 2.89 µM; GI50 (BT-549 breast): 1.49 µM; TGI (BT-549 breast): 2.83 µM; GI50 (CAKI-1 renal): 1.37 µM; TGI (CAKI-1 renal): 2.81 µM; GI50 (CCRF-CEM leukemia): 1.71 µM; TGI (CCRF-CEM leukemia): 3.09 µM; GI50 (DU-145 prostate): 1.79 µM; TGI (DU-145 prostate): 3.34 µM; GI50 (EKVX NSCLC): 2 µM; TGI (EKVX NSCLC): 3.65 µM; GI50 (HCC-2998 colon): 1.58 µM; TGI (HCC-2998 colon): 2.96 µM; GI50 (HCT-116 colon): 1.4 µM; TGI (HCT-116 colon): 2.72 µM; GI50 (HL-60(TB) leukemia): 2.04 µM; TGI (HL-60(TB) leukemia): 3.47 µM; GI50 (HOP-62 NSCLC): 1.61 µM; TGI (HOP-62 NSCLC): 3.24 µM; GI50 (HS 578T breast): 1.28 µM; TGI (HS 578T breast): 2.82 µM; GI50 (HT29 colon): 1.23 µM; TGI (HT29 colon): 2.51 µM; GI50 (IGROV1 ovarian): 0.427 µM; TGI (IGROV1 ovarian): 4.47 µM; GI50 (K-562 leukemia): 0.137 µM; TGI (K-562 leukemia): 0.286 µM; GI50 (KM12 colon): 0.0475 µM; TGI (KM12 colon): 1.33 µM; GI50 (LOX IMVI melanoma): 2.23 µM; TGI (LOX IMVI melanoma): 3.69 µM; GI50 (M14 melanoma): 1.87 µM; TGI (M14 melanoma): 3.29 µM; GI50 (MALME-3M melanoma): 1.46 µM; TGI (MALME-3M melanoma): 2.78 µM; GI50 (MCF7 breast): 1.32 µM; TGI (MCF7 breast): 2.76 µM; GI50 (MDA-MB-231 breast): 1.72 µM; TGI (MDA-MB-231 breast): 3.13 µM; GI50 (MDA-MB-435 melanoma): 1.86 µM; TGI (MDA-MB-435 melanoma): 3.33 µM; GI50 (NCI-H226 lung): 0.812 µM; TGI (NCI-H226 lung): 2.19 µM; GI50 (NCI-H322M lung): 1.41 µM; TGI (NCI-H322M lung): 3.36 µM; GI50 (NCI-H460 NSCLC): 1.87 µM; TGI (NCI-H460 NSCLC): 3.3 µM; GI50 (NCI-H522 lung): 0.75 µM; TGI (NCI-H522 lung): 2.04 µM; GI50 (NCI/ADR-RES ovarian): 14.6 µM; TGI (NCI/ADR-RES ovarian): > 100 µM; GI50 (OVCAR-3 ovarian): 1.78 µM; TGI (OVCAR-3 ovarian): 3.26 µM; GI50 (OVCAR-4 ovarian): 1.44 µM; TGI (OVCAR-4 ovarian): 2.87 µM; GI50 (PC-3 prostate): 2.66 µM; TGI (PC-3 prostate): 10.3 µM; GI50 (RXF 393 renal): 1.11 µM; TGI (RXF 393 renal): 2.58 µM; GI50 (SF-268 CNS): 1.56 µM; TGI (SF-268 CNS): 3.1 µM; GI50 (SF-295 CNS): 1.83 µM; TGI (SF-295 CNS): 3.25 µM; GI50 (SF-539 CNS): 0.545 µM; TGI (SF-539 CNS): 1.91 µM; GI50 (SK-MEL-2 melanoma): 1.72 µM; TGI (SK-MEL-2 melanoma): 3.12 µM; GI50 (SK-MEL-5 melanoma): 2.19 µM; TGI (SK-MEL-5 melanoma): 3.64 µM; GI50 (SK-OV-3 ovarian): 1.34 µM; TGI (SK-OV-3 ovarian): 2.78 µM; GI50 (SN12C renal): 1.11 µM; TGI (SN12C renal): 2.35 µM; GI50 (SNB-19 CNS): 1.44 µM; TGI (SNB-19 CNS): 4.32 µM; GI50 (SNB-75 CNS): 0.468 µM; TGI (SNB-75 CNS): 1.51 µM; GI50 (SW-620 colon): 1.82 µM; TGI (SW-620 colon): 3.25 µM; GI50 (T-47D breast): 1.37 µM; TGI (T-47D breast): 2.72 µM; GI50 (TK-10 renal): 1.83 µM; TGI (TK-10 renal): 3.82 µM; GI50 (UACC-62 melanoma): 1.9 µM; TGI (UACC-62 melanoma): 3.32 µM; GI50 (UO-31 renal): 1.4 µM; TGI (UO-31 renal): 2.93 µM
